Measurements: patent publication US12304916B2, “Thienopyridinyl and thiazolopyridinyl compounds useful as IRAK4 inhibitors” (BRISTOL-MYERS SQUIBB COMPANY, priority 2019, dated 2025)

Key:
[1] = test system: IL-6 levels in human whole blood stimulated with a TLR2 agonist (lipoteichoic acid); assay: IRAK4 Whole Blood Assay; format: cell-based; conditions: 10 μg/mL lipoteichoic acid for 5 hours, IL-6 readout
Method: Human whole blood containing the anti-coagulant ACD-A was plated in 384-well plate (25 μL/well) and incubated with compounds for 60 minutes at 37° C. in a 5% CO2 incubator. The blood was stimulated with a TLR2 agonist, 10 μg/mL final concentration of lipoteichoic acid (Invivogen, San Diego, CA) in 25 μL RPMI (Gibco) for 5 hours in a 5% CO2 incubator. At the end of the incubation, plates were centrifuged at 2300 rpm for 5 minutes. Supernatants were harvested and analyzed for IL-6 levels by Flow Cytometry beads assay (BD Biosciences, San Jose, CA).

IRAK4 = IRAK4 (Homo sapiens (Human), UniProt Q9NWZ3); assay: IRAK4 Inhibition Assay; format: biochemical; conditions: ATP 500 μM; IRAK4 0.6 nM; 60 min at room temperature
Method: The assays were performed in U-bottom 384-well plates. The final assay volume was 30 μL prepared from 15 μL additions of enzyme and substrates (fluoresceinated peptide and ATP) and test compounds in assay buffer (20 mM HEPES pH 7.2, 10 mM MgCl2, 0.015% Brij 35 and 4 mM DTT). The reaction was initiated by the combination of IRAK4 with substrates and test compounds. The reaction mixture was incubated at room temperature for 60 min. and terminated by adding 45 μL of 35 mM EDTA to each sample. The reaction mixture was analyzed on the Caliper LABCHIP® 3000 (Caliper, Hopkinton, MA) by electrophoretic separation of the fluorescent substrate and phosphorylated product. Inhibition data were calculated by comparison to no enzyme control reactions for 100% inhibition and vehicle-only reactions for 0% inhibition. The final concentrations of reagents in the assays are ATP, 500 μM; FL-IPTSPITTTYFFFKKK peptide 1.5 μM; IRAK4, 0.6 nM; and DMSO, 1.6%.

IRAK4, sequence (Q9NWZ3 whole entry, species assumed): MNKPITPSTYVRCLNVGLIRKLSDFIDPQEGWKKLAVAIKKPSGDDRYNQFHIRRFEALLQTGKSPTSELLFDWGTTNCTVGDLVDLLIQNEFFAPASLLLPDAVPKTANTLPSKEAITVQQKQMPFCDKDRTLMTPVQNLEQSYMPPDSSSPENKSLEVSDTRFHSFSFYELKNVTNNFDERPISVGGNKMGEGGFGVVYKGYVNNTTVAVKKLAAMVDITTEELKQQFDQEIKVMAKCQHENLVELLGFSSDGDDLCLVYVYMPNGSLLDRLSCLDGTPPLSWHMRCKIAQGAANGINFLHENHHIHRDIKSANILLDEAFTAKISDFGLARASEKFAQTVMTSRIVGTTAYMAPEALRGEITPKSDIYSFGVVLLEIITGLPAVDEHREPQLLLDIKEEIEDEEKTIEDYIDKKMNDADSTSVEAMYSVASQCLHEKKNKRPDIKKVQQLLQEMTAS

EC50 [1] [nM] | IC50 (IRAK4) [nM] | SMILES
> 20000 | 2.4 | CC(C)Nc1c(C(=O)NC[C@@H](F)C(C)(C)O)cnc2sc(-c3cn[nH]c3)cc12 [Example 21, (R)-N-(2-fluoro-3-hydroxy-3-methylbutyl)-4-(isopropylamino)-2-(1H-pyrazol-4-yl)thieno[2,3-b]pyridine-5-carboxamide]
3420 | 5.3 | CC(C)Nc1c(C(=O)NC[C@@H](F)C(C)(C)O)cnc2sc(-c3cccnc3)cc12 [Example 22, (R)-N-(2-fluoro-3-hydroxy-3-methylbutyl)-4-(isopropylamino)-2-(pyridin-3-yl)thieno[2,3-b]pyridine-5-carboxamide]
4250 | 4.8 | CC(C)Nc1c(C(=O)NC[C@@H](F)C(C)(C)O)cnc2sc(-c3ccncc3)cc12 [Example 23, (R)-N-(2-fluoro-3-hydroxy-3-methylbutyl)-4-(isopropylamino)-2-(pyridin-4-yl) thieno[2,3-b]pyridine-5-carboxamide]
> 20000 | 16.8 | CC(C)Nc1c(C(=O)NC[C@@H](F)C(C)(C)O)cnc2sc(-c3cccc(C#N)c3)cc12 [Example 24, (R)-2-(3-cyanophenyl)-N-(2-fluoro-3-hydroxy-3-methylbutyl)-4-(isopropylamino)thieno[2,3-b]pyridine-5-carboxamide]
> 20000 | 18.9 | CC(C)Nc1c(C(=O)NC[C@@H](F)C(C)(C)O)cnc2sc(-c3ccc(C#N)nc3)cc12 [Example 25, (R)-2-(6-cyanopyridin-3-yl)-N-(2-fluoro-3-hydroxy-3-methylbutyl)-4-(isopropylamino) thieno[2,3-b]pyridine-5-carboxamide]
580 | 2 | CC(C)Nc1c(C(=O)NC[C@@H](F)C(C)(C)O)cnc2sc(-c3cncs3)cc12 [Example 27, (R)-N-(2-fluoro-3-hydroxy-3-methylbutyl)-4-(isopropylamino)-2-(thiazol-5-yl) thieno[2,3-b]pyridine-5-carboxamide]
2400 | 12.9 | CC(C)CCNC(=O)c1cnc2sc(-c3ccncc3)cc2c1NC(C)C [Example 29, N-isopentyl-4-(isopropylamino)-2-(pyridin-4-yl)thieno[2,3-b]pyridine-5-carboxamide]
> 20000 | 7.5 | CC(C)CCNC(=O)c1cnc2sc(-c3cncs3)cc2c1NC(C)C [Example 30, N-isopentyl-4-(isopropylamino)-2-(thiazol-5-yl)thieno[2,3-b]pyridine-5-carboxamide]
> 20000 | 10.3 | CC(C)Nc1c(C(=O)NC[C@@H](F)C(C)(C)O)cnc2sc(-c3ccnnc3)cc12 [Example 32, (R)-N-(2-fluoro-3-hydroxy-3-methylbutyl)-4-(isopropylamino)-2-(pyridazin-4-yl)thieno[2,3-b]pyridine-5-carboxamide]
5040 | 12.3 | CC(C)Nc1c(C(=O)N[C@H]2CC[C@H](N)CC2)cnc2sc(-c3cncs3)cc12 [Example 38, N-((1r,4r)-4-aminocyclohexyl)-4-(isopropylamino)-2-(thiazol-5-yl)thieno[2,3-b]pyridine-5-carboxamide]
> 20000 | 12.2 | CC(C)Nc1c(C(=O)NCc2ncn[nH]2)cnc2sc(-c3cncs3)cc12 [Example 42, N-((1H-1,2,4-triazol-5-yl)methyl)-4-(isopropylamino)-2-(thiazol-5-yl)thieno[2,3-b]pyridine-5-carboxamide]
> 20000 | 17.1 | CCOCCNC(=O)c1cnc2sc(-c3cncs3)cc2c1NC(C)C [Example 43, N-(2-ethoxyethyl)-4-(isopropylamino)-2-(thiazol-5-yl)thieno[2,3-b]pyridine-5-carboxamide]
660 | 8.2 | CC(C)Nc1c(C(=O)NCCC(C)(C)O)cnc2sc(-c3cncs3)cc12 [Example 44, N-(3-hydroxy-3-methylbutyl)-4-(isopropylamino)-2-(thiazol-5-yl)thieno[2,3-b]pyridine-5-carboxamide]
5310 | 9.3 | COC(=O)N[C@H]1CC[C@H](NC(=O)c2cnc3sc(-c4cncs4)cc3c2NC(C)C)CC1 [Example 50, methyl ((1r,4r)-4-(4-(isopropylamino)-2-(thiazol-5-yl)thieno[2,3-b]pyridine-5-carboxamido)cyclohexyl)carbamate]
3650 | 15.1 | CC(C)(O)[C@H](F)CNC(=O)c1cnc2sc(-c3cncs3)cc2c1NC1COC1 [Example 53, (R)-N-(2-fluoro-3-hydroxy-3-methylbutyl)-4-(oxetan-3-ylamino)-2-(thiazol-5-yl)thieno[2,3-b]pyridine-5-carboxamide]
> 10000 | 6 | CC(C)Nc1c(C(=O)NC[C@@H](F)C(C)(C)O)cnc2sc(-c3cnc(N)s3)cc12 [Example 56, (R)-2-(2-aminothiazol-5-yl)-N-(2-fluoro-3-hydroxy-3-methylbutyl)-4-(isopropylamino)thieno[2,3-b]pyridine-5-carboxamide]
3540 | 8.2 | Cc1ncc(-c2cc3c(NC(C)C)c(C(=O)NC[C@@H](F)C(C)(C)O)cnc3s2)s1 [Example 57, (R)-N-(2-fluoro-3-hydroxy-3-methylbutyl)-4-(isopropylamino)-2-(2-methylthiazol-5-yl)thieno[2,3-b]pyridine-5-carboxamide]
190 | 3.8 | CC(C)Nc1c(C(=O)NC[C@@H](F)C(C)(C)O)cnc2sc(-c3ccc(=O)[nH]c3)cc12 [Example 59, (R)-N-(2-fluoro-3-hydroxy-3-methylbutyl)-4-(isopropylamino)-2-(6-oxo-1,6-dihydropyridin-3-yl)thieno[2,3-b]pyridine-5-carboxamide]
> 10000 | 10.8 | CC(O)CCNC(=O)c1cnc2sc(-c3cncs3)cc2c1NC(C)C (centres unmarked) [Example 60, N-(3-hydroxybutyl)-4-(isopropylamino)-2-(thiazol-5-yl)thieno[2,3-b]pyridine-5-carboxamide]
2340 | 5.4 | CC(C)Nc1c(C(=O)NCCC2(O)CC(F)(F)C2)cnc2sc(-c3cncs3)cc12 [Example 63, N-(2-(3,3-difluoro-1-hydroxycyclobutyl)ethyl)-4-(isopropylamino)-2-(thiazol-5-yl)thieno[2,3-b]pyridine-5-carboxamide]
– | 42.8 | CC(C)Nc1c(C(=O)NCCCNS(C)(=O)=O)cnc2sc(-c3ccc(=O)[nH]c3)cc12 [Example 67, 4-(isopropylamino)-N-(3-(methylsulfonamido)propyl)-2-(6-oxo-1,6-dihydropyridin-3-yl)thieno[2,3-b]pyridine-5-carboxamide]
> 20000 | 10.9 | CC(C)Nc1c(C(=O)NCCN2CCS(=O)(=O)CC2)cnc2sc(-c3cncs3)cc12 [Example 68, N-(2-(1,1-dioxidothiomorpholino)ethyl)-4-(isopropylamino)-2-(thiazol-5-yl)thieno[2,3-b]pyridine-5-carboxamide]
– | 72.2 | CC(C)Nc1c(C(=O)NCC2CCS(=O)(=O)C2)cnc2sc(-c3cncs3)cc12 (centres unmarked) [Example 69, N-((1,1-dioxidotetrahydrothiophen-3-yl)methyl)-4-(isopropylamino)-2-(thiazol-5-yl)thieno[2,3-b]pyridine-5-carboxamide]
– | 22.6 | CC(C)Nc1c(C(=O)NCCC2CCNC2)cnc2sc(-c3ccc(=O)[nH]c3)cc12 (centres unmarked) [Example 70, 4-(isopropylamino)-2-(6-oxo-1,6-dihydropyridin-3-yl)-N-(2-(pyrrolidin-3-yl)ethyl)thieno[2,3-b]pyridine-5-carboxamide]
– | 24.2 | CC(C)Nc1c(C(=O)NCCN2CCS(=O)(=O)CC2)cnc2sc(-c3ccc(=O)[nH]c3)cc12 [Example 73, N-(2-(1,1-dioxidothiomorpholino)ethyl)-4-(isopropylamino)-2-(6-oxo-1,6-dihydropyridin-3-yl)thieno[2,3-b]pyridine-5-carboxamide]
– | 171 | CC(C)Nc1c(-n2cc(CCC(C)(C)O)nn2)cnc2sc(-c3cccnc3)cc12 [Example 74, 4-(1-(4-(isopropylamino)-2-(pyridin-3-yl)thieno[2,3-b]pyridin-5-yl)-1H-1,2,3-triazol-4-yl)-2-methylbutan-2-ol]
– | 44.8 | CC(C)Nc1c(-n2cc(CCC(C)(C)O)nn2)cnc2sc(-c3ccncc3)cc12 [Example 75, 4-(1-(4-(isopropylamino)-2-(pyridin-4-yl)thieno[2,3-b]pyridin-5-yl)-1H-1,2,3-triazol-4-yl)-2-methylbutan-2-ol]
– | 44.1 | CC(C)CCc1cn(-c2cnc3sc(-c4ccncc4)cc3c2NC(C)C)nn1 [Example 76, 5-(4-isopentyl-1H-1,2,3-triazol-1-yl)-N-isopropyl-2-(pyridin-4-yl)thieno[2,3-b]pyridin-4-amine]
– | 289 | CC(C)CCc1nc(-c2cnc3sc(-c4cncs4)cc3c2NC(C)C)n[nH]1 [Example 77, 5-(5-isopentyl-1H-1,2,4-triazol-3-yl)-N-isopropyl-2-(thiazol-5-yl)thieno[2,3-b]pyridin-4-amine]
